Experimental data reported in the supplement of paper PMC13380429.
Counter-ions that a name gives are not always drawn.

Tests used:
[1] = system: HepG2; test: relative viability EC50 (midpoint between 100% and the lowest measured viability); higher = less toxic; settings: 72 h
[2] = system: U2OS; test: as above; settings: 72 h
[3] = system: Vero E6; test: as above; settings: 72 h
[4] = system: Caco-2; test: as above; settings: 72 h
[5] = system: Calu-3; test: as above; settings: 72 h
[6] = system: A549-ACE2 infected with SARS-CoV-2; test: morphology score (similarity to uninfected cells); higher = more like uninfected cells; settings: 24 h
[7] = system: A549-ACE2 infected with SARS-CoV-2; test: cell count relative to DMSO; higher = less toxic; settings: 24 h
[8] = system: A549-ACE2 infected with SARS-CoV-2; test: SARS-CoV-2 infection rate relative to DMSO; higher = more infection; settings: 24 h
[9] = system: HepG2; test: drug sensitivity score (DSS) for viability; higher = more toxic; extreme values may be limits of the assay; settings: 72 h
[10] = system: U2OS; test: as above; settings: 72 h
[11] = system: Vero E6; test: as above; settings: 72 h
[12] = system: Caco-2; test: as above; settings: 72 h
[13] = system: Calu-3; test: as above; settings: 72 h
[14] = system: A549-ACE2; test: drug-induced phospholipidosis relative to tamoxifen; higher = more phospholipidosis
[15] = system: HepG2; test: cell viability relative to DMSO; higher = less toxic; settings: 72 h
[16] = system: U2OS; test: as above; settings: 72 h
[17] = system: Vero E6; test: as above; settings: 72 h
[18] = system: Caco-2; test: as above; settings: 72 h
[19] = system: Calu-3; test: as above; settings: 72 h
[20] = system: A549-ACE2; test: phospholipidosis EC50; higher = less potent phospholipidosis inducer

CCCN1CCN(c2ccc(C(=O)NC3(C(=O)NCC#N)CCCCC3)cc2)CC1 [balicatib]
Settings	drug sensitivity score	relative viability EC50 [µM]
[1]	–	> 10
[2]	–	> 10
[3]	–	> 10
[4]	–	> 10
[5]	–	> 10
[9]	0	–
[10]	0	–
[11]	0	–
[12]	0	–
[13]	0	–

Settings	SARS-CoV-2 infection rate, [8] [%]	cell count, [7] [%]	cell viability, [15] [%]	cell viability, [16] [%]	cell viability, [17] [%]	cell viability, [18] [%]	cell viability, [19] [%]	morphology score, [6]
1 nM	–	–	90	100	99.7	107	108	–
10 nM	–	–	103	99.7	108	101	100	–
100 nM	–	–	114	95	108	102	98.8	–
0.3 µM	86	107	–	–	–	–	–	0.39
1000 nM	–	–	104	103	98.1	95.4	108	–
3 µM	45	116	–	–	–	–	–	0.76
10 µM	33	119	–	–	–	–	–	0.78
10000 nM	–	–	101	95.4	105	106	110	–
30 µM	20	117	–	–	–	–	–	0.83

drug-induced phospholipidosis [%], [14]
Settings	0.3 µM	0.833333 µM	3.33333 µM	6.66667 µM	10 µM	30 µM
24 h	1.43	-0.89	1.98	6.47	8.06	17.1
48 h	1.09	-1.16	0.49	4.83	7.84	17.9
72 h	4.12	-0.524	1.07	5.37	8.73	20.4

Oc1ccc2c3c1O[C@H]1c4c(c5ccccc5n4Cc4ccccc4)C[C@@]4(O)[C@@H](C2)N(CC2CC2)CC[C@]314 [N-benzylnaltrindole]
Settings	drug sensitivity score	relative viability EC50 [µM]
[2]	–	> 10
[4]	–	> 10
[5]	–	3.19
[9]	2.3	–
[10]	0	–
[11]	1.9	–
[12]	0	–
[13]	3.3	–

Settings	SARS-CoV-2 infection rate [%]	cell count [%]	cell viability [%]	morphology score	phospholipidosis EC50 [µM]
[6], 0.1 µM	–	–	–	0.1	–
[6], 0.3 µM	–	–	–	0.1	–
[6], 1 µM	–	–	–	0.24	–
[6], 3 µM	–	–	–	0.47	–
[7], 0.1 µM	–	100	–	–	–
[7], 0.3 µM	–	101	–	–	–
[7], 1 µM	–	104	–	–	–
[7], 3 µM	–	108	–	–	–
[8], 0.1 µM	96	–	–	–	–
[8], 0.3 µM	94	–	–	–	–
[8], 1 µM	90	–	–	–	–
[8], 3 µM	69	–	–	–	–
[15], 1 nM	–	–	102	–	–
[15], 10 nM	–	–	98.9	–	–
[15], 100 nM	–	–	103	–	–
[15], 1000 nM	–	–	100	–	–
[15], 10000 nM	–	–	54.8	–	–
[16], 1 nM	–	–	94.9	–	–
[16], 10 nM	–	–	102	–	–
[16], 100 nM	–	–	95.9	–	–
[16], 1000 nM	–	–	102	–	–
[16], 10000 nM	–	–	89.1	–	–
[17], 1 nM	–	–	100	–	–
[17], 10 nM	–	–	96	–	–
[17], 100 nM	–	–	95.1	–	–
[17], 1000 nM	–	–	96.2	–	–
[17], 10000 nM	–	–	70.1	–	–
[18], 1 nM	–	–	88.7	–	–
[18], 10 nM	–	–	99.7	–	–
[18], 100 nM	–	–	88.5	–	–
[18], 1000 nM	–	–	99	–	–
[18], 10000 nM	–	–	86.9	–	–
[19], 1 nM	–	–	96.9	–	–
[19], 10 nM	–	–	99.8	–	–
[19], 100 nM	–	–	106	–	–
[19], 1000 nM	–	–	100	–	–
[19], 10000 nM	–	–	38.9	–	–
[20], 24 h	–	–	–	–	2.62
[20], 48 h	–	–	–	–	4.61
[20], 72 h	–	–	–	–	6.76

drug-induced phospholipidosis [%], [14]
Settings	0.3 µM	0.833333 µM	3.33333 µM	6.66667 µM	10 µM	30 µM
24 h	4.31	4.24	48.7	70.1	59	26.2
48 h	5.61	4.16	44.9	83.7	102	–
72 h	4.1	4.23	35.4	81.8	111	–

CC(C)C[C@@H](C=O)NC(=O)[C@H](CC(C)C)NC(=O)[C@H](CC(C)C)NC(=O)OCc1ccccc1 [MG-132]
Settings	drug sensitivity score	relative viability EC50 [µM]
[1]	–	0.611
[2]	–	0.377
[3]	–	0.94
[4]	–	0.391
[5]	–	0.578
[9]	14.4	–
[10]	17	–
[11]	11.6	–
[12]	15.8	–
[13]	14.2	–

Settings	SARS-CoV-2 infection rate, [8] [%]	cell count, [7] [%]	cell viability, [15] [%]	cell viability, [16] [%]	cell viability, [17] [%]	cell viability, [18] [%]	cell viability, [19] [%]	morphology score, [6]
1 nM	–	–	102	99.8	93.1	99.9	96.6	–
10 nM	–	–	97	99.7	100	103	113	–
100 nM	–	–	107	95.7	104	94.5	102	–
0.3 µM	38	109	–	–	–	–	–	0.7
1000 nM	–	–	22.1	9.3	48.5	17.4	23	–
3 µM	9	37	–	–	–	–	–	0.33
10 µM	20	22	–	–	–	–	–	0.22
10000 nM	–	–	-0.1	-0.1	4.4	5.2	3.7	–
30 µM	30	14	–	–	–	–	–	0.18

[14], 24 h
Settings	drug-induced phospholipidosis [%]
0.3 µM	21.5
0.833333 µM	10.6

CC/C(=C(\c1ccc(O)cc1)c1ccc(OCCNC)cc1)c1ccccc1 [Endoxifen HCl]
Settings	drug sensitivity score	relative viability EC50 [µM]
[1]	–	3.53
[3]	–	> 10
[5]	–	3.19
[9]	3.1	–
[11]	0	–
[12]	2.1	–
[13]	5.3	–

Settings	SARS-CoV-2 infection rate [%]	cell count [%]	cell viability [%]	morphology score	phospholipidosis EC50 [µM]
[6], 0.3 µM	–	–	–	0.02	–
[6], 3 µM	–	–	–	0.87	–
[6], 10 µM	–	–	–	0.84	–
[6], 30 µM	–	–	–	-0.2	–
[7], 0.3 µM	–	98	–	–	–
[7], 3 µM	–	123	–	–	–
[7], 10 µM	–	118	–	–	–
[7], 30 µM	–	25	–	–	–
[8], 0.3 µM	100	–	–	–	–
[8], 3 µM	30	–	–	–	–
[8], 10 µM	8	–	–	–	–
[8], 30 µM	86	–	–	–	–
[15], 1 nM	–	–	110	–	–
[15], 10 nM	–	–	95.4	–	–
[15], 100 nM	–	–	103	–	–
[15], 1000 nM	–	–	105	–	–
[15], 10000 nM	–	–	36.5	–	–
[17], 1 nM	–	–	103	–	–
[17], 10 nM	–	–	105	–	–
[17], 100 nM	–	–	103	–	–
[17], 1000 nM	–	–	99.9	–	–
[17], 10000 nM	–	–	91.1	–	–
[18], 1 nM	–	–	104	–	–
[18], 10 nM	–	–	115	–	–
[18], 100 nM	–	–	106	–	–
[18], 1000 nM	–	–	105	–	–
[18], 10000 nM	–	–	53.6	–	–
[19], 1 nM	–	–	102	–	–
[19], 10 nM	–	–	94	–	–
[19], 100 nM	–	–	96.6	–	–
[19], 1000 nM	–	–	100	–	–
[19], 10000 nM	–	–	5.1	–	–
[20], 24 h	–	–	–	–	1.9
[20], 48 h	–	–	–	–	3
[20], 72 h	–	–	–	–	3.1

drug-induced phospholipidosis [%], [14]
Settings	0.3 µM	0.833333 µM	3.33333 µM	6.66667 µM	10 µM
24 h	5.89	13.1	65.7	78.7	78.6
48 h	5.61	7.92	62.4	83.1	77.4
72 h	8.35	4.33	55.2	86.8	88.4
